Data taken from PubChem BioAssay (NCI).
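Each compound was tested at five concentrations against cells in 96-well plates for 48 hours. Abbreviation: GI50, concentration required for 50% inhibition of growth. TGI: total growth inhibition.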

Experiments:
Assay in all cases: NCI anticancer screen, dose series, 48 h; in the data active = GI50 below about 0.43 µM; inactive = the rest
OVCAR-8 ovarian = system: OVCAR-8 ovarian
SK-MEL-28 melanoma = system: SK-MEL-28 melanoma
CAKI-1 renal = system: CAKI-1 renal
MCF7 breast = system: MCF7 breast
T-47D breast = system: T-47D breast
NCI-H522 lung = system: NCI-H522 lung
MDA-MB-231 breast = system: MDA-MB-231 breast
SK-MEL-2 melanoma = system: SK-MEL-2 melanoma
SK-OV-3 ovarian = system: SK-OV-3 ovarian
NCI-H226 lung = system: NCI-H226 lung
RPMI-8226 leukemia = system: RPMI-8226 leukemia
RXF 393 renal = system: RXF 393 renal
IGROV1 ovarian = system: IGROV1 ovarian
786-0 renal = system: 786-0 renal
HS 578T breast = system: HS 578T breast
SN12C renal = system: SN12C renal
HT29 colon = system: HT29 colon
U251 CNS = system: U251 CNS
UACC-62 melanoma = system: UACC-62 melanoma
M14 melanoma = system: M14 melanoma
NCI-H460 lung = system: NCI-H460 lung
BT-549 breast = system: BT-549 breast
K-562 leukemia = system: K-562 leukemia
SF-295 CNS = system: SF-295 CNS
SK-MEL-5 melanoma = system: SK-MEL-5 melanoma
UACC-257 melanoma = system: UACC-257 melanoma
SW-620 colon = system: SW-620 colon
OVCAR-5 ovarian = system: OVCAR-5 ovarian
SNB-75 CNS = system: SNB-75 CNS
OVCAR-4 ovarian = system: OVCAR-4 ovarian
DU-145 prostate = system: DU-145 prostate
HOP-92 NSCLC = system: HOP-92 NSCLC
MOLT-4 leukemia = system: MOLT-4 leukemia
A549 NSCLC = system: A549 NSCLC
HOP-62 NSCLC = system: HOP-62 NSCLC
HCT-15 colon = system: HCT-15 colon
A498 renal = system: A498 renal
SF-268 CNS = system: SF-268 CNS
CCRF-CEM leukemia = system: CCRF-CEM leukemia
EKVX NSCLC = system: EKVX NSCLC
HCC-2998 colon = system: HCC-2998 colon
SF-539 CNS = system: SF-539 CNS
COLO 205 colon = system: COLO 205 colon
UO-31 renal = system: UO-31 renal
NCI-H23 lung = system: NCI-H23 lung
MDA-MB-435 = system: MDA-MB-435
LOX IMVI melanoma = system: LOX IMVI melanoma
HCT-116 colon = system: HCT-116 colon
PC-3 prostate = system: PC-3 prostate
OVCAR-3 ovarian = system: OVCAR-3 ovarian
SNB-19 CNS = system: SNB-19 CNS
NCI/ADR-RES ovarian = system: NCI/ADR-RES ovarian
TK-10 renal = system: TK-10 renal
SR leukemia = system: SR leukemia
KM12 colon = system: KM12 colon
ACHN renal = system: ACHN renal
HL-60(TB) leukemia = system: HL-60(TB) leukemia
MALME-3M melanoma = system: MALME-3M melanoma

COc1cccc(OC(=O)c2ccc(C(F)(F)F)nc2Nc2c(C)cccc2Cl)c1
73.5 µM: TGI (SNB-19 CNS)
45.9 µM: TGI (SK-MEL-2 melanoma)
32.3 µM: TGI (HCC-2998 colon)
47.1 µM: TGI (PC-3 prostate)
43.3 µM: TGI (IGROV1 ovarian)
41.4 µM: TGI (HOP-92 NSCLC)
inactive: GI50 (OVCAR-8 ovarian) 19.5 µM | GI50 (SK-MEL-28 melanoma) 20.5 µM | GI50 (CAKI-1 renal) 16.3 µM | GI50 (MCF7 breast) 15.8 µM | GI50 (T-47D breast) 18.7 µM | GI50 (NCI-H522 lung) 16 µM | GI50 (MDA-MB-231 breast) 12.9 µM | GI50 (SK-MEL-2 melanoma) 19.4 µM | GI50 (SK-OV-3 ovarian) 32.9 µM | GI50 (NCI-H226 lung) 47.7 µM | GI50 (RPMI-8226 leukemia) 35.8 µM | GI50 (RXF 393 renal) 25 µM | GI50 (IGROV1 ovarian) 15.1 µM | GI50 (786-0 renal) 27.7 µM | GI50 (HS 578T breast) 24.7 µM | GI50 (SN12C renal) 21.4 µM | GI50 (HT29 colon) 26.4 µM | GI50 (U251 CNS) 19.1 µM | GI50 (UACC-62 melanoma) 17.3 µM | GI50 (M14 melanoma) 38.9 µM | GI50 (NCI-H460 lung) 26.4 µM | GI50 (BT-549 breast) 30.4 µM | GI50 (K-562 leukemia) 36.5 µM | GI50 (SF-295 CNS) 17.1 µM | GI50 (SK-MEL-5 melanoma) 33.3 µM | GI50 (UACC-257 melanoma) 33.4 µM | GI50 (SW-620 colon) 46 µM | GI50 (OVCAR-5 ovarian) 3.13 µM | GI50 (SNB-75 CNS) 16.4 µM | GI50 (OVCAR-4 ovarian) 13.8 µM | GI50 (DU-145 prostate) 32.1 µM | GI50 (HOP-92 NSCLC) 17.6 µM | GI50 (MOLT-4 leukemia) 31.5 µM | GI50 (A549 NSCLC) 22.8 µM | GI50 (HOP-62 NSCLC) 25.9 µM | GI50 (HCT-15 colon) 54.1 µM | GI50 (A498 renal) 15 µM | GI50 (SF-268 CNS) 24.8 µM | GI50 (CCRF-CEM leukemia) 25.6 µM | GI50 (EKVX NSCLC) 36.1 µM | GI50 (HCC-2998 colon) 4.63 µM | GI50 (SF-539 CNS) 23.4 µM | GI50 (COLO 205 colon) 22.6 µM | GI50 (UO-31 renal) 15.1 µM | GI50 (NCI-H23 lung) 1.84 µM | GI50 (MDA-MB-435) 35 µM | GI50 (LOX IMVI melanoma) 20 µM | GI50 (HCT-116 colon) 25.6 µM | GI50 (PC-3 prostate) 20 µM | GI50 (OVCAR-3 ovarian) 22.8 µM | GI50 (SNB-19 CNS) 22.4 µM
32 µM: TGI (UO-31 renal)
41.3 µM: TGI (A498 renal)
78.9 µM: TGI (CCRF-CEM leukemia)
42.5 µM: TGI (MDA-MB-231 breast)
48.5 µM: TGI (SF-295 CNS)
64.3 µM: TGI (SN12C renal)
82.3 µM: TGI (HOP-62 NSCLC)
64.8 µM: TGI (LOX IMVI melanoma)
69.2 µM: TGI (OVCAR-3 ovarian)
55.7 µM: TGI (RXF 393 renal)
21.2 µM: TGI (OVCAR-5 ovarian)
70.4 µM: TGI (SF-539 CNS)
48.8 µM: TGI (CAKI-1 renal)
86.8 µM: TGI (SF-268 CNS)
38.3 µM: TGI (NCI-H522 lung)
58.6 µM: TGI (A549 NSCLC)
71.6 µM: TGI (SK-MEL-28 melanoma)
> 100 µM: TGI (T-47D breast) | TGI (SK-OV-3 ovarian) | TGI (NCI-H226 lung) | TGI (RPMI-8226 leukemia) | TGI (786-0 renal) | TGI (HT29 colon) | TGI (M14 melanoma) | TGI (NCI-H460 lung) | TGI (BT-549 breast) | TGI (K-562 leukemia) | TGI (SK-MEL-5 melanoma) | TGI (UACC-257 melanoma) | TGI (SW-620 colon) | TGI (DU-145 prostate) | TGI (MOLT-4 leukemia) | TGI (HCT-15 colon) | TGI (EKVX NSCLC) | TGI (COLO 205 colon) | TGI (MDA-MB-435) | TGI (HCT-116 colon)
19 µM: TGI (NCI-H23 lung)
40.6 µM: TGI (U251 CNS)
94.6 µM: TGI (HS 578T breast)
40.9 µM: TGI (SNB-75 CNS)
30.9 µM: TGI (OVCAR-4 ovarian)
39.4 µM: TGI (UACC-62 melanoma)
81.2 µM: TGI (MCF7 breast)
46.3 µM: TGI (OVCAR-8 ovarian)

Cc1ccc2[nH]c3c(c2c1)N=c1ccccc1=NO3
inactive: GI50 (NCI/ADR-RES ovarian) 22.7 µM | GI50 (OVCAR-8 ovarian) 17.5 µM | GI50 (SK-MEL-28 melanoma) > 100 µM | GI50 (CAKI-1 renal) 10.5 µM | GI50 (T-47D breast) 74.4 µM | GI50 (NCI-H522 lung) 26 µM | GI50 (MDA-MB-231 breast) 35.9 µM | GI50 (SK-MEL-2 melanoma) > 100 µM | GI50 (SK-OV-3 ovarian) 29.9 µM | GI50 (NCI-H226 lung) 70 µM | GI50 (RPMI-8226 leukemia) > 100 µM | GI50 (RXF 393 renal) 47.6 µM | GI50 (IGROV1 ovarian) 32.6 µM | GI50 (786-0 renal) 35 µM | GI50 (SN12C renal) 36.5 µM | GI50 (HT29 colon) 76.1 µM | GI50 (U251 CNS) 53.7 µM | GI50 (UACC-62 melanoma) 36.5 µM | GI50 (M14 melanoma) 48 µM | GI50 (TK-10 renal) 38.2 µM | GI50 (SR leukemia) 33.4 µM | GI50 (KM12 colon) 34.8 µM | GI50 (NCI-H460 lung) 45.9 µM | GI50 (ACHN renal) 32.3 µM | GI50 (BT-549 breast) 14.2 µM | GI50 (K-562 leukemia) > 100 µM | GI50 (SF-295 CNS) 23.8 µM | GI50 (SK-MEL-5 melanoma) 40.9 µM | GI50 (UACC-257 melanoma) 70.6 µM | GI50 (SW-620 colon) > 100 µM | GI50 (OVCAR-5 ovarian) > 100 µM | GI50 (SNB-75 CNS) 25.4 µM | GI50 (OVCAR-4 ovarian) 27.9 µM | GI50 (HL-60(TB) leukemia) > 100 µM | GI50 (DU-145 prostate) 34.6 µM | GI50 (HOP-92 NSCLC) > 100 µM | GI50 (MOLT-4 leukemia) > 100 µM | GI50 (A549 NSCLC) > 100 µM | GI50 (HCT-15 colon) > 100 µM | GI50 (SF-268 CNS) 23.1 µM | GI50 (CCRF-CEM leukemia) > 100 µM | GI50 (EKVX NSCLC) 26.2 µM | GI50 (HCC-2998 colon) 81.7 µM | GI50 (SF-539 CNS) 10.6 µM | GI50 (COLO 205 colon) 31.9 µM | GI50 (UO-31 renal) 42.2 µM | GI50 (NCI-H23 lung) 75.9 µM | GI50 (MDA-MB-435) > 100 µM | GI50 (LOX IMVI melanoma) 97.8 µM | GI50 (HCT-116 colon) 83.8 µM | GI50 (MALME-3M melanoma) 20 µM | GI50 (PC-3 prostate) 57 µM | GI50 (OVCAR-3 ovarian) 25.8 µM | GI50 (SNB-19 CNS) 32.6 µM
55.8 µM: TGI (SF-268 CNS)
84.9 µM: TGI (SF-295 CNS)
47.6 µM: TGI (CAKI-1 renal)
43 µM: TGI (OVCAR-8 ovarian)
51.6 µM: TGI (BT-549 breast)
54.1 µM: TGI (MALME-3M melanoma)
> 100 µM: TGI (SK-MEL-28 melanoma) | TGI (T-47D breast) | TGI (NCI-H522 lung) | TGI (MDA-MB-231 breast) | TGI (SK-MEL-2 melanoma) | TGI (SK-OV-3 ovarian) | TGI (NCI-H226 lung) | TGI (RPMI-8226 leukemia) | TGI (RXF 393 renal) | TGI (IGROV1 ovarian) | TGI (786-0 renal) | TGI (SN12C renal) | TGI (HT29 colon) | TGI (U251 CNS) | TGI (UACC-62 melanoma) | TGI (M14 melanoma) | TGI (TK-10 renal) | TGI (SR leukemia) | TGI (KM12 colon) | TGI (NCI-H460 lung) | TGI (ACHN renal) | TGI (K-562 leukemia) | TGI (SK-MEL-5 melanoma) | TGI (UACC-257 melanoma) | TGI (SW-620 colon) | TGI (OVCAR-5 ovarian) | TGI (SNB-75 CNS) | TGI (OVCAR-4 ovarian) | TGI (HL-60(TB) leukemia) | TGI (DU-145 prostate) | TGI (HOP-92 NSCLC) | TGI (MOLT-4 leukemia) | TGI (A549 NSCLC) | TGI (HCT-15 colon) | TGI (CCRF-CEM leukemia) | TGI (EKVX NSCLC) | TGI (HCC-2998 colon) | TGI (COLO 205 colon) | TGI (UO-31 renal) | TGI (NCI-H23 lung) | TGI (MDA-MB-435) | TGI (LOX IMVI melanoma) | TGI (HCT-116 colon) | TGI (PC-3 prostate) | TGI (OVCAR-3 ovarian) | TGI (SNB-19 CNS)
27.6 µM: TGI (SF-539 CNS)
71.2 µM: TGI (NCI/ADR-RES ovarian)
